Legend:
[1] = test system: extra cellular serotonin levels (ventral hippocampus); assay: 3-day microdialysis in rats (minipumps); assay type: in vivo, rat; details: 4 mg/kg vs 10 mg/kg (S)-citalopram, oxalate salts, FIG. 4
Description: (§1) Male Sprague-Dawley rats, initially weighing 275-300 g, are used
(§2) Rats are anaesthetised with hypnorm/dormicum (2 ml/kg) and intracerebral guide cannulas (CMA/12) are stereotaxically implanted into the hippocampus, aiming to position the dialysis probe tip in the ventral hippocampus (co-ordinates: 5.6 mm posterior to bregma, lateral −5.0 mm, 7.0 mm ventral to dura or in the frontal cortex (co-ordinates: 3.2 mm anterior to bregma; lateral, 0.8 mm; 4.0 mm ventral to dura). Anchor screws and acrylic cement are used for fixation of the guide cannulas. The body temperature of the animals is monitored by rectal probe and maintained at 37° C. The rats are allowed to recover from surgery for 2 days, housed singly in cages. On the day of the experiment, a microdialysis probe (CMA/12, 0.5 mm diameter, 3 mm length) is inserted through the guide cannula.
(§3) The probes are connected via a dual channel swivel to a microinjection pump. Perfusion of the microdialysis probe with filtered Ringer solution ([…], 3 mM KCl, 1 mM MgCl2, 1.2 mM CaCl2) is begun shortly before insertion of the probe into the brain and continued for the duration of the experiment at a constant flow rate of 1 μL/min. After 180 min of stabilisation, the experiments are initiated. Dialysates were collected every 20 min. […]
(§4) Concentration of 5-HT in the dialysates is analysed by means of HPLC with electrochemical detection. […]

[2] = target: T1, hSERT (Homo sapiens, UniProt P31645); assay type: binding; details: increasing concentrations of (R)-citalopram; FIG. 2
T1 construct: expressed in transfected cells; host or cells: HEK293 cells expressing hSERT; membranes
Description: Association rates are determined on membrane preparations from HEK293 cells transiently expressing hSERT. The kinetics of the association of the [^3H]compound- SERT complex is determined after incubation of aliquots consisting of 10 μg membranes from HEK293 cells transiently expressing hSERT and 290 μL [^3H]test compound pre incubated until equilibrium. Association is initiated by addition of radioligand in the absence or presence of R-citalopram (0-300 μM). Bound [^3H]test compound is measured after 0, 2, 5, 10, 15, 20, 30, 50, 70 and 90 minutes.
HEK293 cells expressing hSERT are harvested and 10 μg HEK293-hSERT membrane is placed in each well in a 96 well microtiter plate. […] Concentration of test-compounds is varied from the nM to the μM range. Incubation-time is 0, 2, 5, 10, 15, 20, 30, 50, 70 and 90 minutes on ice or at room temperature (22° C.). Mebranes are harvested in ice-cold ELGA-water onto a GF/C fiberglass filter (Presoaked with 0.5% PEI for 30 min). Filters are rinsed twice with 2×0.5 ml ice-cold ELGA-water. The filters are dried and added 40 L of scintillation fluid.

[3] = target: T1, hSERT; assay: [3H]-(S)-citalopram dissociation from SERT (allosteric site binding)
Description: The assay procedure was modified based on the methods described in Pharmacol. Toxicol., 80, 197-201, 1997 and J.Neurochem., 92, 21-28, 2005.
PeakRapid 293 cells (Edge Biosystems, Gaithersburg, Md.) were cultured in Dulbecco's Modified Eagle Medium (DMEM) supplemented with 10% bovine calf serum, 4 mM L-glutamine, 100 units/ml penicillin and 100 μg/ml streptomycin) at 37° C., 5% CO2. Human SERT cDNA in a mammalian expression vector was transiently transfected into PeakRapid 293 cells using 10 μg total DNA in 150 cm2 flasks by lipofectamine method (Invitrogen, Carlsbad, Calif.). Two days after transfection, membranes were harvested.
Binding assays were conducted in buffer containing 50 mM Tris, 120 mM NaCl, and 5 mM KCl, PH 7.4. Prior to dissociation binding, [3H]-(S)-citalopram (40 nM) was incubated with hSERT membranes (5 ug/10 ul) for 2 hours at room temperature. The reaction mixture was dispensed into 96 well format minitubes at 10 ul/well and kept on ice. […] Bound ligand was counted using a Trilux counter.
Dissociation binding data were analyzed using GraphPad Prism 4 (GraphPad, San Diego, Calif.) and Xlfit 4 (IDBS, Guildford, Surrey, UK). […] The ratios (k/k0) of the rate (k) in the presence compounds over the rate (k0) in the absence of compounds were calculated for each compound concentration. […]

[4] = test system: extracellular serotonin in the ventral hippocampus; assay: Microdialysis in rats, single administration ± (R)-citalopram; assay type: in vivo, rat; details: FIG. 3
Description: as §1, §2, §3, §4

T1 sequence (P31645 whole entry): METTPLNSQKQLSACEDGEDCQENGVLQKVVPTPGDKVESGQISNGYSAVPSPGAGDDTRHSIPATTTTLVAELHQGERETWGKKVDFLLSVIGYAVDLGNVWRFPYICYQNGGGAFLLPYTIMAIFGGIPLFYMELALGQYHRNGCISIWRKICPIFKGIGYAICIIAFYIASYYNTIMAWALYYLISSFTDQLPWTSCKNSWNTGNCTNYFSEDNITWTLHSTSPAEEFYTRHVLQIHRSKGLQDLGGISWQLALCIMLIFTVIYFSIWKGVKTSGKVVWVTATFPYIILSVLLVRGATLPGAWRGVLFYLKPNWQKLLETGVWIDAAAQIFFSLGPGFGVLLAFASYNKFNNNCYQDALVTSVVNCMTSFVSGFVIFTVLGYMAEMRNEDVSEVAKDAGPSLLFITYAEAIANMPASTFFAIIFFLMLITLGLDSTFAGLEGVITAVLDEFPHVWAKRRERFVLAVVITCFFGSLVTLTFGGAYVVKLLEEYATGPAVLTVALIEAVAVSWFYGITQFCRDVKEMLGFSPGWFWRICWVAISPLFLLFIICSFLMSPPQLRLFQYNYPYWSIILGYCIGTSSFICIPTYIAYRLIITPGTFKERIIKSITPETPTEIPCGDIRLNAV

## CNCc1ccccc1Sc1c[nH]c2cc(F)ccc12 [[2-(6-Fluoro-1H-indol-3-ylsulfanyl)-benzyl]-methyl-amine]
[1]
  increase in serotonin levels compared with (S)-citalopram: faster and more pronounced increase in the serotonin levels than (S)-citalopram
[2]
  effect of (R)-citalopram on association of the [3H] ligand to SERT: almost unaffected by (R)-citalopram
[3]; at 200 μM
  slowing of 3H (S)-citalopram dissociation rate (fold modulation): 5.4 fold
[3]; hSERT membranes, [3H]-(S)-citalopram 40 nM, room temperature, N=2, read-out: IC50 of binding to an allosteric site (from k/k0 of 3H-(S)-citalopram dissociation)
  IC50: 26 µM
[4]
  extracellular serotonin in the ventral hippocampus: significant increase
[4]; ventral hippocampus
  effect of concomitant (R)-citalopram on the increase in extracellular serotonin: not affected by concomitant administration of (R)-citalopram

Source: US20090054510A1, “METHOD FOR IDENTIFYING COMPOUNDS FOR THE TREATMENT OF DEPRESSION” (H. LUNDBECK A/S, priority 2006, published 2009)
